From patent US12780800B1, “Triazole-pyridinyl substituted azacyclohexyl acetic acid compounds as LPA receptor antagonists” (Viva Star Biosciences Limited, priority 2021, dated 2022) come the findings set out here.

The target in this test is T1, LPA1 (Homo sapiens, UniProt Q92633).
T1 construct: ProLink (PK) beta-galactosidase enzyme-fragment tag; host or cells: CHO-K1
T1 sequence (Q92633 whole entry, the tested form may be a part): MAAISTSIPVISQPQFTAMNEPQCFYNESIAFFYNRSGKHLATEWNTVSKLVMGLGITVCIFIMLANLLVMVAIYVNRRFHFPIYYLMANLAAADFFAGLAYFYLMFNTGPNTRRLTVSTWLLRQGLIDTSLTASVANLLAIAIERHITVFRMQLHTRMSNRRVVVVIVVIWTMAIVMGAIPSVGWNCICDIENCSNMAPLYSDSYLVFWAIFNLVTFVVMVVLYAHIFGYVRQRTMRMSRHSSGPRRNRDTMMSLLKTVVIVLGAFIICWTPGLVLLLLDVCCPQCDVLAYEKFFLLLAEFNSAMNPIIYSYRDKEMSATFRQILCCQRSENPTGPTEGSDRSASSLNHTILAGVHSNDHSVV
In words: LPA1 calcium flux assay (LPA1 functional antagonist assay). The class given is cell-based. Particulars: PathHunter CHO-K1 EDG2 β-Arrestin cell line; calcium indicator dye; stimulated with EC80 concentration of LPA; FLIPR Tetra. The procedure, abridged:
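The LPA1 antagonist readout was intracellular calcium flux, and IC50 values were calculated from it. Plates stood 30 min at RT after compound addition. Cells, grown overnight, had first taken up calcium dye over 45 min at 37 °C.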
In general terms: A change in cytosolic calcium serves as a functional read-out for many receptors and channels.
For `Cc1nc(-c2nnn(C)c2COc2cc(-n3cccn3)ccn2)ccc1N1CCC[C@H](CC(=O)O)C1` [Example 103, (R)-2-(1-(6-(5-(((4-(1H-pyrazol-1-yl)pyridin-2-yl)oxy)methyl)-1-methyl-1H-1,2,3-triazol-4-yl)-2-methylpyridin-3-yl)piperidin-3-yl)acetic acid], the IC50 is below 100 nM.
Under `Cc1nc(-c2nnn(C)c2COc2cc(-n3nccn3)ccn2)ccc1N1CCC[C@H](CC(=O)O)C1` [Example 104, (R)-2-(1-(6-(5-(((4-(2H-1,2,3-triazol-2-yl)pyridin-2-yl)oxy)methyl)-1-methyl-1H-1,2,3-triazol-4-yl)-2-methylpyridin-3-yl)piperidin-3-yl)acetic acid] stands below 100 nM; under `Cc1nc(-c2onc(C)c2COc2cc(-n3cccn3)ncn2)ccc1N1C[C@@H](CC(=O)O)CC(F)(F)C1` [Example 105, (S)-2-(1-(6-(4-(((6-(1H-pyrazol-1-yl)pyrimidin-4-yl)oxy)methyl)-3-methylisoxazol-5-yl)-2-methylpyridin-3-yl)-5,5-difluoropiperidin-3-yl)acetic acid], below 100 nM; under `CCCn1ccnc(OCc2c(-c3ccc(N4C[C@@H](CC(=O)O)CC(F)(F)C4)c(C)n3)nnn2C)c1=O` [Example 106, (S)-2-(5,5-difluoro-1-(2-methyl-6-(1-methyl-5-(((3-oxo-4-propyl-3,4-dihydropyrazin-2-yl)oxy)methyl)-1H-1,2,3-triazol-4-yl)pyridin-3-yl)piperidin-3-yl)acetic acid], above 5000 nM.
With `CCCn1ccc(=O)c(OCc2c(-c3ccc(N4C[C@@H](CC(=O)O)CC(F)(F)C4)c(CC)n3)nnn2C)c1` [Example 107, (S)-2-(1-(2-ethyl-6-(1-methyl-5-(((4-oxo-1-propyl-1,4-dihydropyridin-3-yl)oxy)methyl)-1H-1,2,3-triazol-4-yl)pyridin-3-yl)-5,5-difluoropiperidin-3-yl)acetic acid], the IC50 is above 5000 nM.
Under `CCCn1nc(OCc2c(-c3ccc(N4C[C@@H](CC(=O)O)CC(F)(F)C4)c(C)n3)nnn2C)ccc1=O` [Example 108, (S)-2-(5,5-difluoro-1-(2-methyl-6-(1-methyl-5-(((6-oxo-1-propyl-1,6 dihydropyridazin-3-yl)oxy)methyl)-1H-1,2,3-triazol-4-yl)pyridin-3-yl)piperidin-3-yl)acetic acid] stands 500 to 5000 nM; under `CCCn1cc(OCc2c(-c3ccc(N4C[C@@H](CC(=O)O)CC(F)(F)C4)c(CC)n3)nnn2C)c(=O)cn1` [Example 109, (S)-2-(1-(2-ethyl-6-(1-methyl-5-(((5-oxo-2-propyl-2,5-dihydropyridazin-4-yl)oxy)methyl)-1H-1,2,3-triazol-4-yl)pyridin-3-yl)-5,5-difluoropiperidin-3-yl)acetic acid], 500 to 5000 nM; under `CCCc1cn(C)c(=O)c(OCc2c(-c3ccc(N4C[C@@H](CC(=O)O)CC(F)(F)C4)c(CC)n3)nnn2C)n1` [Example 110, (S)-2-(1-(2-ethyl-6-(1-methyl-5-(((4-methyl-3-oxo-6-propyl-3,4-dihydropyrazin-2-yl)oxy)methyl)-1H-1,2,3-triazol-4-yl)pyridin-3-yl)-5,5-difluoropiperidin-3-yl)acetic acid], above 5000 nM.
Under `CCCn1ccc(=O)c(OCc2c(-c3ccc(N4C[C@@H](CC(=O)O)CC(F)(F)C4)c(CC)n3)nnn2C)n1` [Example 111, (S)-2-(1-(2-ethyl-6-(1-methyl-5-(((4-oxo-1-propyl-1,4-dihydropyridazin-3-yl)oxy)methyl)-1H-1,2,3-triazol-4-yl)pyridin-3-yl)-5,5-difluoropiperidin-3-yl)acetic acid] stands above 5000 nM; under `CCCc1cccnc1OCc1c(-c2ccc(N3CCC(CC(=O)O)C(F)(F)C3)c(C)n2)nnn1C` (stereo not shown) [Example 113, 2-(3,3-difluoro-1-(2-methyl-6-(1-methyl-5-(((3-propylpyridin-2-yl)oxy)methyl)-1H-1,2,3-triazol-4-yl)pyridin-3-yl)piperidin-4-yl)acetic acid], 500 to 5000 nM.
Next, `CCc1nc(-c2nnn(C)c2COc2noc(CC3CC3)n2)ccc1N1C[C@@H](CC(=O)O)CC(F)(F)C1` [Example 116, (S)-2-(1-(6-(5-(((5-(cyclopropylmethyl)-1,2,4-oxadiazol-3-yl)oxy)methyl)-1-methyl-1H-1,2,3-triazol-4-yl)-2-ethylpyridin-3-yl)-5,5-difluoropiperidin-3-yl)acetic acid]: below 100 nM; `CCc1nc(-c2nnn(C)c2CNc2noc(CC3CC3)n2)ccc1N1C[C@@H](CC(=O)O)CC(F)(F)C1` [Example 117, (S)-2-(1-(6-(5-(((5-(cyclopropylmethyl)-1,2,4-oxadiazol-3-yl)amino)methyl)-1-methyl-1H-1,2,3-triazol-4-yl)-2-ethylpyridin-3-yl)-5,5-difluoropiperidin-3-yl)acetic acid]: 100 to 500 nM.
Regarding `CCc1nc(-c2cnn(C)c2COc2noc(CC3CC3)n2)ncc1N1C[C@@H](CC(=O)O)CC(F)(F)C1` [Example 118, (S)-2-(1-(2-(5-(((5-(cyclopropylmethyl)-1,2,4-oxadiazol-3-yl)oxy)methyl)-1-methyl-1H-pyrazol-4-yl)-4-ethylpyrimidin-5-yl)-5,5-difluoropiperidin-3-yl)acetic acid], the IC50 was above 5000 nM.
On to `CCc1nc(-c2nnn(C)c2COc2noc(C3CCC3)n2)ccc1N1C[C@@H](CC(=O)O)CC(F)(F)C1` [Example 119, (S)-2-(1-(6-(5-(((5-cyclobutyl-1,2,4-oxadiazol-3-yl)oxy)methyl)-1-methyl-1H-1,2,3-triazol-4-yl)-2-ethylpyridin-3-yl)-5,5-difluoropiperidin-3-yl)acetic acid], for which the concentration for half-maximal inhibition (IC50) is 100 to 500 nM.
In the case of `CCc1nc(-c2nnn(C)c2CNc2noc(C3CCC3)n2)ccc1N1C[C@@H](CC(=O)O)CC(F)(F)C1` [Example 120, (S)-2-(1-(6-(5-(((5-cyclobutyl-1,2,4-oxadiazol-3-yl)amino)methyl)-1-methyl-1H-1,2,3-triazol-4-yl)-2-ethylpyridin-3-yl)-5,5-difluoropiperidin-3-yl)acetic acid], the IC50 lay within 500 to 5000 nM.
For `CCCn1ncnc1OCc1c(-c2ccc(N3C[C@@H](CC(=O)O)CC(F)(F)C3)c(CC)n2)nnn1C` [Example 121, (S)-2-(1-(2-ethyl-6-(1-methyl-5-(((1-propyl-1H-1,2,4-triazol-5-yl)oxy)methyl)-1H-1,2,3-triazol-4-yl)pyridin-3-yl)-5,5-difluoropiperidin-3-yl)acetic acid], the IC50 fell in the range of 500 to 5000 nM.
Take `CCc1nc(-c2nnn(C)c2COc2ncnn2CC2CC2)ccc1N1C[C@@H](CC(=O)O)CC(F)(F)C1` [Example 122, (S)-2-(1-(6-(5-(((1-(cyclopropylmethyl)-1H-1,2,4-triazol-5-yl)oxy)methyl)-1-methyl-1H-1,2,3-triazol-4-yl)-2-ethylpyridin-3-yl)-5,5-difluoropiperidin-3-yl)acetic acid]: the half-maximal inhibitory concentration (IC50) fell in the range of 100 to 500 nM.
Next, `CCc1nc(-c2nnn(C)c2COc2ncnn2CC(C)C)ccc1N1C[C@@H](CC(=O)O)CC(F)(F)C1` [Example 123, (S)-2-(1-(2-ethyl-6-(5-(((1-isobutyl-1H-1,2,4-triazol-5-yl)oxy)methyl)-1-methyl-1H-1,2,3-triazol-4-yl)pyridin-3-yl)-5,5-difluoropiperidin-3-yl)acetic acid]: 100 to 500 nM.
For the compound `CCc1nc(-c2nnn(C)c2COc2nnn(CC(C)C)n2)ccc1N1C[C@@H](CC(=O)O)CC(F)(F)C1` [Example 124, (S)-2-(1-(2-ethyl-6-(5-(((2-isobutyl-2H-tetrazol-5-yl)oxy)methyl)-1-methyl-1H-1,2,3-triazol-4-yl)pyridin-3-yl)-5,5-difluoropiperidin-3-yl)acetic acid], the IC50 is below 100 nM.
As for `CCc1nc(-c2nnn(C)c2COc2nnn(CC3CC3)n2)ccc1N1C[C@@H](CC(=O)O)CC(F)(F)C1` [Example 125, (S)-2-(1-(6-(5-(((2-(cyclopropylmethyl)-2H-tetrazol-5-yl)oxy)methyl)-1-methyl-1H-1,2,3-triazol-4-yl)-2-ethylpyridin-3-yl)-5,5-difluoropiperidin-3-yl)acetic acid], the IC50 is below 100 nM.
Take `CCc1nc(-c2nnn(C)c2COc2cn(CC3CC3)nn2)ccc1N1C[C@@H](CC(=O)O)CC(F)(F)C1` [Example 126, (S)-2-(1-(6-(5-(((1-(cyclopropylmethyl)-1H-1,2,3-triazol-4-yl)oxy)methyl)-1-methyl-1H-1,2,3-triazol-4-yl)-2-ethylpyridin-3-yl)-5,5-difluoropiperidin-3-yl)acetic acid]: the IC50 was 100 to 500 nM.
Under `CCc1nc(-c2nnn(C)c2COc2cnn(CC3CC3)n2)ccc1N1C[C@@H](CC(=O)O)CC(F)(F)C1` [Example 127] stands 100 to 500 nM.
Next, `CCc1nc(-c2nnn(C)c2COc2cn(CC(C)C)nn2)ccc1N1C[C@@H](CC(=O)O)CC(F)(F)C1` [Example 128, (S)-2-(1-(2-ethyl-6-(5-(((1-isobutyl-1H-1,2,3-triazol-4-yl)oxy)methyl)-1-methyl-1H-1,2,3-triazol-4-yl)pyridin-3-yl)-5,5-difluoropiperidin-3-yl)acetic acid]: 100 to 500 nM.
Next, `CCc1nc(-c2nnn(C)c2COc2cnn(CC(C)C)n2)ccc1N1C[C@@H](CC(=O)O)CC(F)(F)C1` [Example 129, (S)-2-(1-(2-ethyl-6-(5-(((2-isobutyl-2H-1,2,3-triazol-4-yl)oxy)methyl)-1-methyl-1H-1,2,3-triazol-4-yl)pyridin-3-yl)-5,5-difluoropiperidin-3-yl)acetic acid]: below 100 nM.
On to `CCc1nc(-c2nnn(C)c2Cn2ncc(CC3CC3)n2)ccc1N1C[C@@H](CC(=O)O)CC(F)(F)C1` [Example 130, (S)-2-(1-(6-(5-((4-(cyclopropylmethyl)-2H-1,2,3-triazol-2-yl)methyl)-1-methyl-1H-1,2,3-triazol-4-yl)-2-ethylpyridin-3-yl)-5,5-difluoropiperidin-3-yl)acetic acid], for which the IC50 was below 100 nM.

The IC50 is the concentration needed to halve the response being measured.
